Measured values as given in publication PMC11257039, “VCP activator reverses nuclear proteostasis defects and enhances TDP-43 aggregate clearance in multisystem proteinopathy models” (The Journal of Clinical Investigation, 2024).
Several values for one entry are separate records, joined by “and”; a condition that tells them apart may be missing. Equal entries are not always repeated.

Legend:
A232E VCP = molecular target: T1, A232E VCP (Mus musculus, UniProt Q01853, A232E); experiment: MESG-PNP ATPase assay, recombinant A232E VCP; type: biochemical; details: VCP Mutation A232E; replicate values
T1 construct: in the full-length recombinant VCP; His (N); made in house; host or cells: Escherichia coli BL21-CodonPlus (DE3)-RIL
T1 sequence (Q01853 whole entry A232E): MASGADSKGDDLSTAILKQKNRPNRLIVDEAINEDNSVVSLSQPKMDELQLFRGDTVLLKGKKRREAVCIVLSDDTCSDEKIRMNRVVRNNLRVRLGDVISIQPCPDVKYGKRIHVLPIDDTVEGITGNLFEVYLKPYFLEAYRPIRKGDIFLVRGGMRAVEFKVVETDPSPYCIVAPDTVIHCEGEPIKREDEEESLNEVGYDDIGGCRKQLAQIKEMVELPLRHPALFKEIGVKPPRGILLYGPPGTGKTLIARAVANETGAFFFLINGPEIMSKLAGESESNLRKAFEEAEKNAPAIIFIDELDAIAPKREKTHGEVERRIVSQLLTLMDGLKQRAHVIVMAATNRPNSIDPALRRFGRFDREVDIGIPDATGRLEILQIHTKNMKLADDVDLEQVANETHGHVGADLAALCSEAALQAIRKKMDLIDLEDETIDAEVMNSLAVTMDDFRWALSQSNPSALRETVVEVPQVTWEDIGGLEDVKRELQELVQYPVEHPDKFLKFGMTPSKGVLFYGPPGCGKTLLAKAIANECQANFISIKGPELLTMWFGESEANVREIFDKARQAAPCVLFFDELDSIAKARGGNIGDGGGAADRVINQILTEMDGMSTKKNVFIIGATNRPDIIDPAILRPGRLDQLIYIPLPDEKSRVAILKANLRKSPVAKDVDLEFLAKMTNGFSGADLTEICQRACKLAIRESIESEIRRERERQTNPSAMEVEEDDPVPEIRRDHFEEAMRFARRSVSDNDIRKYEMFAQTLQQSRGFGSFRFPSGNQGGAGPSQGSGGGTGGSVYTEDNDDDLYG
Method: (§1) All other experiments were performed using the EnzCheck phosphatase assay kit (Molecular Probes). ATPase activity was measured in a 96-well flat bottom plate (Thermo Fisher Scientific). 50 nM VCP was incubated in 100 μL ATPase buffer with 2% DMSO with 25 μM compound and various ATP concentrations. The absorbance at 360 ± 5 nm was measured for more than 15 minutes at 25°C. Phosphate release was quantified based on a phosphate standard curve performed on the same plate. Initial enzyme velocity was determined by fitting the linear portion of the data to a linear regression model.
(§2) Figure S8. VCP activators variable effect on ATPase activity of MSP associated mutations in recombinant VCP. ATPase activity of 50 nM recombinant VCP protein was measured using an MESG-PNP assay upon treatment with 25 μM compound versus 2% DMSO control at 1mM ATP for WT (also shown in Fig. 5c), A232E, R155H, and R159H (n=3 with 3 technical replicated per experiment; points are expressed as beta ± SE, linear effects model: *P<0.05,**P<0.01; ***P<0.001; ****P<0.0001).

luciferase = experiment: Luciferase counter assay: Kinase-Glo with 62.5 μM ATP without recombinant VCP; type: biochemical; details: for measured ATP consumed (nmol) without VCP: replicate values
Method: (§3) Experiments with varied activator concentration and screening were measured using the Kinase-Glo Luminescent Kinase Assay (Promega). Reactions were incubated at 25°C for 1 hour then reduced to 4°C in a thermocycler consisting of 50 nM of recombinant VCP with or without 50 nM UFD1/NPLOC4 in 50 uL ATPase buffer (25 mM HEPES, pH 7.5, 100 mM NaCl, 10 mM MgCl2) at 2% DMSO with 62.5 μM ATP and a range of activator concentrations (Gibco, Sigma-Aldrich). Equal volumes of reaction and Kinase-Glo reagent were incubated for 20 minutes at room temperature in a 96 well white flat bottom plate (Corning). Luminescence was measured in a microplate reader (Spark 20M, Tecan).
(A-D) Measured ATP as determined by a Kinase-Glo assay of 62.5μM ATP in the presence of increasing concentrations of compound without recombinant VCP present. (for all panels: n=3 with 4 technical replicates per experiment, points are expressed as beta ± SE, linear mixed effects model, P>0.05 for each […]
(1 picture or pasted object on this page, not shown here)

[1] = tested on: WT HeLa cells expressing GFP-TDP-4FL; experiment: Flow cytometry of GFP-TDP-4FL integrated fluorescence, WT HeLa; type: cell-based; details: for Integrated Fluorescence WT (Normalized to CHX): 4 μM MG132 17 h
Method: Drug treatments were performed on neurons 7 days after lentiviral transduction and 14 days after neuronal induction. HeLa cells were collected using trypsin and pelleted at 1000g for 3 minutes. Cell pellets were resuspended in colorless DMEM (Invitrogen) supplemented with 2% FBS and filtered through a BD tube with cell strainer (BD Biosciences) for flow cytometry analysis on LSR II (BD Biosciences). Data analysis was performed on FlowJo v10 software. Integrated fluorescence intensity was determined by multiplying percent positive GFP and GFP median fluorescence values.

recombinant WT VCP [2] = molecular target: T2, recombinant WT VCP (Mus musculus, UniProt Q01853); experiment: MESG-PNP (EnzCheck) phosphate release ATPase assay, WT VCP; type: biochemical; details: for ATPase activity v0/ET: 25 μM compound, replicate experiments
T2 construct: in the full-length recombinant VCP; His (N); made in house; host or cells: Escherichia coli BL21-CodonPlus (DE3)-RIL
T2 sequence (Q01853 whole entry): as the sequence (Q01853 whole entry A232E) above, with E232A counted along it
Method: as §1
(§4) Experiments with varied compound concentration were fit to a 3-parameter dose curve with asymmetric profile likelihood 95% confidence intervals in GraphPad Prism 9 (GraphPad). Experiments with varied ATP concentration were fit to a Michaelis-Menten model with asymmetric profile likelihood 95% confidence intervals. Significance was determined for experiments with fixed compound or fixed ATP concentration using a linear mixed-effects model.

WT VCP + Ufd1/Nploc4 = molecular target: T3, WT VCP + Ufd1/Nploc4 (Mus musculus, UniProt Q01853); experiment: Kinase-Glo ATPase assay, WT VCP with UFD1/NPLOC4 (UN); type: biochemical; details: for ATP consumed: WT VCP with UN
T3 construct: in the full-length recombinant VCP; His (N); made in house; host or cells: E. coli (VCP: BL21-CodonPlus (DE3)-RIL; UFD1 and NPLOC4: E. coli (DE3), purified by the MD Anderson core)
T3 sequence (Q01853 whole entry): as the sequence (Q01853 whole entry A232E) above, with E232A counted along it
T3 sequence (Q92890 whole entry partner): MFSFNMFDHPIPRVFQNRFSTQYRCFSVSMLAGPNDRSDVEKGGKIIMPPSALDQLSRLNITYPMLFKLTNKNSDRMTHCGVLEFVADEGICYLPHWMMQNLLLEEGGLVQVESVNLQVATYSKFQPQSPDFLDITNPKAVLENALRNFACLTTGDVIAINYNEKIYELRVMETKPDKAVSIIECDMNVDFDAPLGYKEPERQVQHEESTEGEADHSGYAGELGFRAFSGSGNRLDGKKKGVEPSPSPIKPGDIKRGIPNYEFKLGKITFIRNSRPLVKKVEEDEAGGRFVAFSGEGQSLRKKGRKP
T3 sequence (Q8TAT6 whole entry partner): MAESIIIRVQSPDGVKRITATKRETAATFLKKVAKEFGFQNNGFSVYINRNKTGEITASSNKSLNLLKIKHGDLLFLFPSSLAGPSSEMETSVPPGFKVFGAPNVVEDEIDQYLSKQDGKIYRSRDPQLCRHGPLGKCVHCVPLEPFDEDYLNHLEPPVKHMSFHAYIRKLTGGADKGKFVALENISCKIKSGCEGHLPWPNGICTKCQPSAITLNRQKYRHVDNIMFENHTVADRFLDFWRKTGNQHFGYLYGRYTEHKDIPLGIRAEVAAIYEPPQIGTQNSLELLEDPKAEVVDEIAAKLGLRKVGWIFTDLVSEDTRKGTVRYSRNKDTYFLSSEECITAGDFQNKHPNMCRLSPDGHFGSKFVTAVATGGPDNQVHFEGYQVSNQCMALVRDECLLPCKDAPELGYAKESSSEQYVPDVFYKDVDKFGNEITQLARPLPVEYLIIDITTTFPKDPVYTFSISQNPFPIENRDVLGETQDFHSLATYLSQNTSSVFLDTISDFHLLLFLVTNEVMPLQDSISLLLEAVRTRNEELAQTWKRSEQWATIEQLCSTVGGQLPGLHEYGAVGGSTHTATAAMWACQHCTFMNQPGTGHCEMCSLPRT
Method: as §3, §4

26S proteasome = 26S proteasome activity, Suc-LLVY-AMC fluorescence; type: biochemical, human; details: 25 μM compound, versus 1% DMSO
Method: 26S proteasome and substrate suc-LLVY-AMC were purchased (LifeSensors, Inc.). Fluorescence was measured in a microplate reader using a 96-well optical bottom black plate (Thermo Fisher Scientific). […] 26S proteasome was incubated in 100 μL proteasome buffer (20 mM HEPES, pH 7.5, 0.5 mM EDTA, 0.05% Triton-X) with 100 μM suc-LLVY-AMC, 1 mM ATP, and 25 μM compound or 1% DMSO. Fluorescence was measured at excitation 380 ± 10nm and emission 460 ± 10nm for more than 15 minutes at 37°C. Initial velocity was determined by fitting the linear portion of the data to a linear regression model. Significance was determined for using a linear mixed-effects model.

R159H VCP = molecular target: T4, R159H VCP (Mus musculus, UniProt Q01853, R159H); experiment: MESG-PNP ATPase assay, recombinant R159H VCP; type: biochemical; details: VCP Mutation R159H; replicate values
T4 construct: in the full-length recombinant VCP; His (N); made in house; host or cells: Escherichia coli BL21-CodonPlus (DE3)-RIL
T4 sequence (Q01853 whole entry R159H): as the sequence (Q01853 whole entry A232E) above, with R159H, E232A counted along it
Method: as §1, §2

R155H VCP = molecular target: T5, R155H VCP (Mus musculus, UniProt Q01853, R155H); experiment: MESG-PNP ATPase assay, recombinant R155H VCP; type: biochemical; details: VCP Mutation R155H; replicate values
T5 construct: in the full-length recombinant VCP; His (N); made in house; host or cells: Escherichia coli BL21-CodonPlus (DE3)-RIL
T5 sequence (Q01853 whole entry R155H): as the sequence (Q01853 whole entry A232E) above, with R155H, E232A counted along it
Method: as §1, §2

recombinant WT VCP [3] = molecular target: T2, recombinant WT VCP; experiment: Kinase-Glo ATPase assay, recombinant WT VCP; type: biochemical; details: for ATP consumed: WT VCP no UN
Method: as §3, §4

## O=C(CSc1nc2ccccc2c(=O)n1NC(=O)c1ccccc1)c1ccc(Cl)cc1 [UP12]
A232E VCP
  ATPase activity, nmol Pi / nmol VCP / s: 1.130 nmol Pi / nmol VCP / s and 0.838 nmol Pi / nmol VCP / s and 0.963 nmol Pi / nmol VCP / s
luciferase; 62.5 μM ATP, increasing concentrations of compound
  luciferase activity (measured ATP without VCP): did not inhibit luciferase activity
luciferase; compound 6.25 μM
  measured ATP consumed (nmol) without VCP: 3.153 nmol and 3.247 nmol and 3.452 nmol and 3.556 nmol and 3.276 nmol and 3.463 nmol and 3.531 nmol and 3.381 nmol and 3.251 nmol and 3.386 nmol and 3.279 nmol and 3.064 nmol
luciferase; compound 12.5 μM
  measured ATP consumed (nmol) without VCP: 3.163 nmol and 3.366 nmol and 3.532 nmol and 3.606 nmol and 3.351 nmol and 3.662 nmol and 3.334 nmol and 3.435 nmol and 3.323 nmol and 3.733 nmol and 3.427 nmol and 3.076 nmol
luciferase; compound 25 μM
  measured ATP consumed (nmol) without VCP: 3.243 nmol and 3.452 nmol and 3.683 nmol and 3.709 nmol and 3.371 nmol and 3.627 nmol and 3.582 nmol and 3.248 nmol and 3.318 nmol and 3.356 nmol and 3.238 nmol and 3.225 nmol
luciferase; compound 50 μM
  measured ATP consumed (nmol) without VCP: 3.199 nmol and 3.663 nmol and 3.673 nmol and 3.419 nmol and 3.053 nmol and 3.725 nmol and 3.509 nmol and 3.086 nmol and 3.588 nmol and 3.442 nmol and 3.634 nmol and 3.113 nmol
luciferase; compound 100 μM
  measured ATP consumed (nmol) without VCP: 3.128 nmol and 3.612 nmol and 3.580 nmol and 3.474 nmol and 3.673 nmol and 3.565 nmol and 3.583 nmol and 2.931 nmol and 3.556 nmol and 3.479 nmol and 3.581 nmol and 3.246 nmol
[1]; then CHX with 5 μM compound 4 h
  Integrated Fluorescence WT (Normalized to CHX): 0.972 and 1.128 and 1.069 and 1.136 and 1.032 and 0.941
[1]; then CHX with 20 μM compound 4 h
  Integrated Fluorescence WT (Normalized to CHX): 0.894 and 0.971 and 1.353 and 0.977 and 0.848 and 0.689
[1]; MG132, then CHX with 5 or 20 μM activator
  clearance of GFP-TDP-4FL aggregates (integrated fluorescence): did not have a significant effect
Recombinant WT VCP [2]; 25 μM activator
  kcat (nmol Pi / nmol VCP / s) (95% CI): 0.309 (0.269, 0.356) nmol Pi / nmol VCP / s
Recombinant WT VCP [2]; 25 μM activator, versus DMSO
  increase in kcat: about 25%
Recombinant WT VCP [2]; [ATP] 62.5 μM
  ATPase activity v0/ET: 0.164 nmol Pi / nmol VCP / s and 0.127 nmol Pi / nmol VCP / s and 0.154 nmol Pi / nmol VCP / s
Recombinant WT VCP [2]; [ATP] 125 μM
  ATPase activity v0/ET: 0.234 nmol Pi / nmol VCP / s and 0.182 nmol Pi / nmol VCP / s and 0.208 nmol Pi / nmol VCP / s
Recombinant WT VCP [2]; [ATP] 250 μM
  ATPase activity v0/ET: 0.282 nmol Pi / nmol VCP / s and 0.230 nmol Pi / nmol VCP / s and 0.291 nmol Pi / nmol VCP / s
Recombinant WT VCP [2]; [ATP] 500 μM
  ATPase activity v0/ET: 0.289 nmol Pi / nmol VCP / s and 0.232 nmol Pi / nmol VCP / s and 0.265 nmol Pi / nmol VCP / s
Recombinant WT VCP [2]; [ATP] 1000 μM
  ATPase activity v0/ET: 0.320 nmol Pi / nmol VCP / s and 0.260 nmol Pi / nmol VCP / s and 0.293 nmol Pi / nmol VCP / s
WT VCP + Ufd1/Nploc4
  change in EC50 with UN compared to without UN: non-significant decreases
  change in maximum percent activity with UN compared to without UN: significantly decreased
WT VCP + Ufd1/Nploc4; WT VCP + Ufd1/Nploc4, 1:1 molar ratio
  EC50: 648 nM
WT VCP + Ufd1/Nploc4; 0.20 μM compound
  ATP consumed: 1.300 nmol and 1.366 nmol and 1.077 nmol
WT VCP + Ufd1/Nploc4; 0.39 μM compound
  ATP consumed: 1.441 nmol and 1.399 nmol and 1.156 nmol
WT VCP + Ufd1/Nploc4; 0.78 μM compound
  ATP consumed: 1.422 nmol and 1.447 nmol and 1.306 nmol
WT VCP + Ufd1/Nploc4; 1.56 μM compound
  ATP consumed: 1.523 nmol and 1.537 nmol and 1.366 nmol
WT VCP + Ufd1/Nploc4; 3.13 μM compound
  ATP consumed: 1.496 nmol and 1.548 nmol and 1.334 nmol
WT VCP + Ufd1/Nploc4; 6.25 μM compound
  ATP consumed: 1.632 nmol and 1.536 nmol and 1.400 nmol
WT VCP + Ufd1/Nploc4; 12.5 μM compound
  ATP consumed: 1.663 nmol and 1.623 nmol and 1.427 nmol
WT VCP + Ufd1/Nploc4; 25 μM compound
  ATP consumed: 1.544 nmol and 1.491 nmol and 1.364 nmol
26S proteasome
  % activity of 26S proteasome: 94.3% and 79.8% and 83.9% and 107.1% and 92.8% and 109.7%
R159H VCP
  ATPase activity, nmol Pi / nmol VCP / s: 0.579 nmol Pi / nmol VCP / s and 0.685 nmol Pi / nmol VCP / s and 0.536 nmol Pi / nmol VCP / s
R155H VCP
  ATPase activity, nmol Pi / nmol VCP / s: 0.592 nmol Pi / nmol VCP / s and 0.458 nmol Pi / nmol VCP / s and 0.468 nmol Pi / nmol VCP / s
Recombinant WT VCP [3]; EC50 (μM) (95% CI), WT VCP without UN, 50 nM VCP, 62.5 μM ATP, 2% DMSO
  EC50: 1.57 µM
Recombinant WT VCP [3]; 0.20 μM compound
  ATP consumed: 0.972 nmol and 0.921 nmol and 1.113 nmol
Recombinant WT VCP [3]; 0.39 μM compound
  ATP consumed: 1.046 nmol and 0.999 nmol and 1.126 nmol
Recombinant WT VCP [3]; 0.78 μM compound
  ATP consumed: 1.028 nmol and 1.027 nmol and 1.185 nmol
Recombinant WT VCP [3]; 1.56 μM compound
  ATP consumed: 1.050 nmol and 1.001 nmol and 1.186 nmol
Recombinant WT VCP [3]; 3.13 μM compound
  ATP consumed: 0.987 nmol and 1.173 nmol and 1.366 nmol
Recombinant WT VCP [3]; 6.25 μM compound
  ATP consumed: 1.164 nmol and 1.158 nmol and 1.362 nmol
Recombinant WT VCP [3]; 12.5 μM compound
  ATP consumed: 1.242 nmol and 1.397 nmol and 1.210 nmol
Recombinant WT VCP [3]; 25 μM compound
  ATP consumed: 1.202 nmol and 1.262 nmol and 1.324 nmol
Recombinant WT VCP [3]; in vitro validation of 106 screen hits
  recombinant WT VCP ATPase activity: significantly increased
Recombinant WT VCP [3]; maximum, WT VCP without UN
  increase of VCP activity: 39%
